Results: patent publication US10548829B2, “Oral care compositions and methods of use” (priority 2016, dated 2020)

Assays:
S. gordonii/A. viscosus = experiment: Growth inhibition (OD610), co-culture; assay type: cell-based, S. gordonii and A. viscosus
Protocol: Further characterization was performed on planktonic oral microbes; Streptococcus sobrinus (Cariongenic—strain-SL1[CCM 6070, CNCTC 9/89] (ATCC cat. #33478), Streptococcus gordonii (Arginolytic—strain V288 (ATCC cat. #35105), Actinomyces viscosus) as well late colonizer (Gram −), pathogenic Aggregatibacter actinomycetemcomitans. All microbes were grown in their respective culture media: Streptococcus sobrinus and Streptococcus gordonii in BHI broth (BD, cat #237500), Aggregatibacter actinomycetemcomitans in BHI broth supplemented with 0.5% Yeast Extract (BD, cat #210941) and Actinomyces viscosus in Trypticase Soy Broth (BD, cat #211768) supplemented with 0.5% Yeast Extract (BD, cat #210941). Bacteria were cultured overnight in 37° C., 5% CO2 in approximately 20 ml of the appropriate culture broth. The following day, the OD610 was determined and solutions were diluted to 0.2 for the assay.
Test samples (Naringin, Naringin:Zinc complex and Naringin+Zinc Acetate (combination)) were prepared as a 100 mM stock solution followed by 2 fold serial dilution in 100% DMSO. Triclosan (positive control) was prepared as a 10% stock in 100% EtOH and 3 fold serial dilutions were done in 100% EtOH. […]
After approximately 12-13 hours of treatment, the plate was read at 610 nm using an Envision plate reader (PerkinElmer, Waltham, Mass.). The % inhibition relative to control was determined as follows: […]

[1] = test system: A. actinomycetemcomitans/S. sobrinus; experiment: Growth inhibition (OD610), co-culture; assay type: cell-based, A. actinomycetemcomitans and S. sobrinus
[2] = test system: EpiGingival™ tissue models; experiment: Tissue zinc uptake analysis; assay type: in vitro ADME; settings: 2 minute treatment
Protocol: All samples were prepared in a final concentration of 1% DMSO in 7% of Propylene Glycol (PG). […] For the vehicle only control, 1% DMSO in 7% PG was used. All samples were equilibrated to 37° C. prior to testing.
Zinc uptake studies were performed using EpiGingival™ tissue models from MatTek Corporation. Briefly, EpiGingival™ tissue inserts were equilibrated overnight in 1 ml of the EpiGingival™ assay media (supplied by MatTek Corporation). For testing, working with one insert at a time, the insert was removed and placed inside a clean 6 well plate. Then, 1 ml of the test sample was carefully removed and introduced to the inside of the insert and allowed to incubate for 2 minutes. Next, the samples were removed using an aspirator and the tissue rinsed with 1 ml of warm water (37° C.). This was repeated for 2 more times for a total of 3 washes. At the end of the last wash making sure to remove as much of the water as possible, the tissue was disengaged from the insert with the tip of a sterile forceps, and transferred into a clean 15 ml Falcon tube. The process was repeated until all the tissues were treated. Experiments were performed three times with each test sample assayed in duplicate.
Digestion of Tissues: Briefly, 0.5 ml of a mixture of 7:3 HCl/HNO3 was introduced into a 15 ml Falcon tube containing one of the treated tissue samples and allowed to digest overnight. The following day, 4.5 ml of water was added to each of the digested tissue samples, thoroughly mixed and centrifuged at 4,000 RPM for 10 minutes at room temperature. The clear supernatant (4.5 ml) was transferred into a clean, labeled Falcon tube and submitted for analytical analysis of Zinc.
A one way ANOVA was done to determine the p value. A plot of the average zinc (ppm) against the various treatments was generated (see FIG. 19).

[3] = 0.5 mM (combination 0.5 mM total)
[4] = 1 mM complex or combination, 0.33 mM Zinc acetate

SMILES	inhibition at 500 µM (S. gordonii/A. viscosus; [3]) [%]	inhibition at 500 µM [1, 3] [%]	% Inhibition (S. gordonii/A. viscosus; 0.175 mM) [%]	% Inhibition ([1]; 0.175 mM) [%]	Zn (ppm) Preparation 1 N1 ([2]; 1 mM complex or combination (0.67 mM + 0.33 mM), 0.33 mM Zinc acetate) [ppm]	Zn (ppm) Preparation 1 N2 [2, 4] [ppm]	Zn (ppm) Preparation 2 N1 [2, 4] [ppm]	Zn (ppm) Preparation 2 N2 [2, 4] [ppm]	Zn (ppm) Preparation 3 N1 [2, 4] [ppm]	Zn (ppm) Preparation 3 N2 [2, 4] [ppm]	Zn Ave (ppm) ([2]; average of three preparations in duplicate)
C[C@@H]1O[C@@H](O[C@H]2[C@H](Oc3cc(O)c4c(c3)O[C@H](c3ccc(O)cc3)CC4=O)O[C@H](CO)[C@@H](O)[C@@H]2O)[C@H](O)[C@H](O)[C@H]1O [Naringin]	-2.39 ± 5.68	0.33 ± 3.48									
CC(=O)[O-].CC(=O)[O-].[Zn+2] [Zinc Acetate alone, Zinc (II) Acetate]			−0.74 ± 6.34	6.58 ± 5.36	0.96	0.92	0.82	0.81	0.84	0.85	0.87
